Assay results published in patent US12187728B2 (Raze Therapeutics, Inc., priority 2015, dated 2025).

Target: T1, Human MTHFD2 (Homo sapiens, UniProt P13995)
T1 construct: residues 36-350 in Uniport ID P13995; His6 (N); made in house; host or cells: E. coli
T1 sequence (P13995 36-350): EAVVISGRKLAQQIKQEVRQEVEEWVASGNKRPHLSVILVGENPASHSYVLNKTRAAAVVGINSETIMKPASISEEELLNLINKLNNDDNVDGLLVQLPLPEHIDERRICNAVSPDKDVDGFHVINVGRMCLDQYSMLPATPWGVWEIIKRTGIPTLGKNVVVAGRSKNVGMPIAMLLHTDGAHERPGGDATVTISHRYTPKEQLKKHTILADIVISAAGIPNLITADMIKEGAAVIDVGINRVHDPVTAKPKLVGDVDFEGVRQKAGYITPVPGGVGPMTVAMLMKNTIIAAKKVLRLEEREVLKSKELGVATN
Test: MTHFD2 Activity Assay (dehydrogenase activity, diaphorase/resazurin coupled fluorescence)
Assay type: biochemical
Conditions: inhibitory activity (IC50 and/or binding constant); 0.2 nM MTHFD2, 11 concentrations
How it was run: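 Resorufin fluorescence (ex 525, em 598 nm) reports NADH formed by the dehydrogenase via diaphorase coupling. Enzyme (0.2 nM, residues 36-350, N-His6) sat with compound 15 min before 70 μM CH2-THF and 1 mM NAD+ started a 30 min reaction. IC50s come from 4-parameter fits over 11 concentrations.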

IC50	SMILES
10 to 1000 nM	Cc1ccc2[nH]c(Cn3c(=O)c4c(nc(Nc5ccncn5)n4C)n(C)c3=O)cc2c1 [Example 205, 3,7-dimethyl-1-((5-methyl-1H-indol-2-yl)methyl)-8-(pyrimidin-4-ylamino)-1H-purine-2,6(3H,7H)-dione]
10 to 1000 nM	Cn1c(Nc2ccnc([C@H]3C[C@@H]3C(N)=O)c2)nc2c1c(=O)n(Cc1ccc(Cl)c(Cl)c1)c(=O)n2C (racemic) [Example 296, (±)-trans-2-(4-((1-(3,4-Dichlorobenzyl)-3,7-dimethyl-2,6-dioxo-2,3,6,7-tetrahydro-1H-purin-8-yl)amino)pyridin-2-yl)cyclopropanecarboxamide]
10 to 1000 nM	CC(=O)NCCNc1nc2c(c(=O)n(Cc3ccc(Cl)c(Cl)c3)c(=O)n2C)n1C [Example 22, N-[2-({1-[(3,4-dichlorophenyl)methyl]-3,7-dimethyl-2,6-dioxo-2,3,6,7-tetrahydro-1H-purin-8-yl}amino)ethyl]acetamide]
5000 to 10000 nM	Cn1c(=O)c2c(nc(CCN)n2C)n(C)c1=O [Example 394, 8-(2-aminoethyl)-1,3,7-trimethyl-1H-purine-2,6(3H,7H)-dione]
10 to 1000 nM	Cn1c(N2CCC(O)CC2)nc2c1c(=O)n(Cc1cc3ccccc3[nH]1)c(=O)n2C [Example 191, 1-((1H-indol-2-yl)methyl)-8-(4-hydroxypiperidin-1-yl)-3,7-dimethyl-1H-purine-2,6(3H,7H)-dione]
> 10000 nM	Cn1c(NCC2(O)CCCCC2)nc2c1c(=O)n(Cc1ccc(C(F)(F)F)cc1)c(=O)n2C [Example 107, 8-((1-hydroxycyclohexyl)methylamino)-3,7-dimethyl-1-(4-(trifluoromethyl)benzyl)-1H-purine-2,6(3H,7H)-dione]
10 to 1000 nM	Cn1c(C(N)C2CCCCC2)nc2c1c(=O)n(Cc1cc3c(Cl)cccc3[nH]1)c(=O)n2C (stereo not shown) [Example 446, 8-[amino(cyclohexyl)methyl]-1-[(4-chloro-1H-indol-2-yl)methyl]-3,7-dimethyl-purine-2,6-dione]
10 to 1000 nM	Cn1c(N[C@H]2CCC[C@H]2N)nc2c1c(=O)n(Cc1cc3c(Cl)cccc3[nH]1)c(=O)n2C [Example 439, 8-((1S,2R)-2-aminocyclopentylamino)-1-((4-chloro-1H-indol-2-yl)methyl)-3,7-dimethyl-1H-purine-2,6(3H,7H)-dione]
1000 to 5000 nM	Cn1c(N[C@H]2CC[C@@H](O)C2)nc2c1c(=O)n(Cc1ccc(C(F)(F)F)cc1)c(=O)n2C (single isomer, unassigned) [Example 156, 8-((1S,3R)-3-hydroxycyclopentylamino)-3,7-dimethyl-1-(4-(trifluoromethyl)benzyl)-1H-purine-2,6(3H,7H)-dione or 8-((1R,3S)-3-hydroxycyclopentylamino)-3,7-dimethyl-1-(4-(trifluoromethyl)benzyl)-1H-purine-2,6(3H,7H)-dione]
1000 to 5000 nM	Cn1c(NC[C@@H]2CCCO2)nc2c1c(=O)n(Cc1ccc(Cl)c(Cl)c1)c(=O)n2C [Example 104, (S)-1-(3,4-dichlorobenzyl)-3,7-dimethyl-8-((tetrahydrofuran-2-yl)methylamino)-1H-purine-2,6(3H,7H)-dione]
10 to 1000 nM	Cn1c(Cn2c(=O)c3c(nc(-n4ncnc4N)n3C)n(C)c2=O)cc2cc(Cl)ccc21 [Example 230, 8-(5-amino-1H-1,2,4-triazol-1-yl)-1-((5-chloro-1-methyl-1H-indol-2-yl)methyl)-3,7-dimethyl-1H-purine-2,6(3H,7H)-dione]
> 10000 nM	CC(c1ccc(Cl)c(Cl)c1)n1c(=O)c2c(nc(NCCCO)n2C)n(C)c1=O (stereo not shown) [Example 72, 1-[1-(3,4-dichlorophenyl)ethyl]-8-[(3-hydroxypropyl)amino]-3,7-dimethyl-2,3,6,7-tetrahydro-1H-purine-2,6-dione]
10 to 1000 nM	Cn1c(N[C@H]2C[C@H](CO)C2)nc2c1c(=O)n(Cc1ccc(Cl)c(Cl)c1)c(=O)n2C [Example 268]
1000 to 5000 nM	Cn1cnc2c1c(=O)n(Cc1cc3ccccc3[nH]1)c(=O)n2C [Example 234, 1-((1H-indol-2-yl)methyl)-3,7-dimethyl-1H-purine-2,6(3H,7H)-dione]
10 to 1000 nM	Cn1c(Nc2cccc(CCC(=O)O)c2)nc2c1c(=O)n(Cc1ccc(Cl)c(Cl)c1)c(=O)n2C [Example 291, 3-(3-(1-(3,4-dichlorobenzyl)-3,7-dimethyl-2,6-dioxo-2,3,6,7-tetrahydro-1H-purin-8-ylamino)phenyl)propanoic acid]
5000 to 10000 nM	Cn1c(NC[C@@H](O)CO)nc2c1c(=O)n(Cc1ccc(Cl)cc1)c(=O)n2C [Example 15, 1-[(4-chlorophenyl)methyl]-8-{[(2R)-2,3-dihydroxypropyl]amino}-3,7-dimethyl-2,3,6,7-tetrahydro-1H-purine-2,6-dione]

IC50	SMILES
10 to 1000 nM	Cn1c(CCN)nc2c1c(=O)n(Cc1cc3c(Cl)cccc3[nH]1)c(=O)n2C [Example 386, 8-(2-aminoethyl)-1-((4-chloro-1H-indol-2-yl)methyl)-3,7-dimethyl-1H-purine-2,6(3H,7H)-dione]
5000 to 10000 nM	Cn1cnc2c1c(=O)n(Cc1ccc3cc[nH]c3c1)c(=O)n2C [Example 263, 1-((1H-indol-6-yl)methyl)-3,7-dimethyl-1H-purine-2,6(3H,7H)-dione]
5000 to 10000 nM	Cn1c(Nc2ncco2)nc2c1c(=O)n(Cc1ccc(Cl)c(Cl)c1)c(=O)n2C [Example 123, 1-(3,4-dichlorobenzyl)-3,7-dimethyl-8-(oxazol-2-ylamino)-1H-purine-2,6(3H,7H)-dione]
10 to 1000 nM	Cn1c(Nc2ccc(Cl)c(CCC(=O)O)n2)nc2c1c(=O)n(Cc1cc3c(Cl)cccc3[nH]1)c(=O)n2C [Example 396, 3-(3-chloro-6-(1-((4-chloro-1H-indol-2-yl)methyl)-3,7-dimethyl-2,6-dioxo-2,3,6,7-tetrahydro-1H-purin-8-ylamino)pyridin-2-yl)propanoic acid]
10 to 1000 nM	CN(C)C(=O)CCc1nccc(Nc2nc3c(c(=O)n(Cc4cc5c(Cl)cccc5[nH]4)c(=O)n3C)n2C)n1 [Example 405, 3-(4-(1-((4-chloro-1H-indol-2-yl)methyl)-3,7-dimethyl-2,6-dioxo-2,3,6,7-tetrahydro-1H-purin-8-ylamino)pyrimidin-2-yl)-N,N-dimethylpropanamide]
10 to 1000 nM	Cn1c(NC[C@@H](O)CO)nc2c1c(=O)n(Cc1ccc(Cl)c(Cl)c1)c(=O)n2C [Example 13, 1-[(3,4-dichlorophenyl)methyl]-8-{[(2R)-2,3-dihydroxypropyl]amino}-3,7-dimethyl-2,3,6,7-tetrahydro-1H-purine-2,6-dione]
10 to 1000 nM	Cn1c(N[C@H]2CCC(=O)NC2)nc2c1c(=O)n(Cc1ccc(Cl)c(Cl)c1)c(=O)n2C (single isomer, unassigned) [Example 82, (S)-1-(3,4-dichlorobenzyl)-3,7-dimethyl-8-(6-oxopiperidin-3-ylamino)-1H-purine-2,6(3H,7H)-dione or (R)-1-(3,4-dichlorobenzyl)-3,7-dimethyl-8-(6-oxopiperidin-3-ylamino)-1H-purine-2,6(3H,7H)-dione]
1000 to 5000 nM	Cn1c(Nc2cn[nH]c2)nc2c1c(=O)n(Cc1ccc(Cl)c(Cl)c1)c(=O)n2C [Example 135]
10 to 1000 nM	Cn1c(Nc2ccc(N3CCNCC3)cn2)nc2c1c(=O)n(Cc1cc3c(Cl)cccc3[nH]1)c(=O)n2C [Example 392, 1-[(4-chloro-1H-indol-2-yl)methyl]-3,7-dimethyl-8-[(5-piperazin-1-yl-2-pyridyl)amino]purine-2,6-dione]
1000 to 5000 nM	Cn1c(N[C@H]2CCNC2)nc2c1c(=O)n(Cc1ccc(Cl)c(Cl)c1)c(=O)n2C [Example 61, 1-[(3,4-dichlorophenyl)methyl]-3,7-dimethyl-8-{[(3S)-pyrrolidin-3-yl]amino}-2,3,6,7-tetrahydro-1H-purine-2,6-dione]
10 to 1000 nM	Cn1c(Nc2cccc(CC(=O)O)c2)nc2c1c(=O)n(Cc1ccc(Cl)c(Cl)c1)c(=O)n2C [Example 287, 2-(3-((1-(3,4-dichlorobenzyl)-3,7-dimethyl-2,6-dioxo-2,3,6,7-tetrahydro-1H-purin-8-yl)amino)phenyl)acetic acid]
1000 to 5000 nM	Cn1c(N[C@@H]2CCC[C@@H]2N)nc2c1c(=O)n(Cc1cc3c(Cl)cccc3[nH]1)c(=O)n2C [Example 395, 8-((1R,2S)-2-aminocyclopentylamino)-1-((4-chloro-1H-indol-2-yl)methyl)-3,7-dimethyl-1H-purine-2,6(3H,7H)-dione]
10 to 1000 nM	Cn1c(N[C@H]2CCC[C@@H]2O)nc2c1c(=O)n(Cc1ccc(Cl)c(Cl)c1)c(=O)n2C [Example 92, 1-[(3,4-dichlorophenyl)methyl]-8-{[(1S,2S)-2-hydroxycyclopentyl]amino}-3,7-dimethyl-2,3,6,7-tetrahydro-1H-purine-2,6-dione]
10 to 1000 nM	Cn1c(NCC(F)(F)F)nc2c1c(=O)n(Cc1ccc(Cl)c(Cl)c1)c(=O)n2C [Example 278, 1-[(3,4-dichlorophenyl)methyl]-3,7-dimethyl-8-(2,2,2-trifluoroethylamino)purine-2,6-dione]
10 to 1000 nM	Cn1c(NC2(CO)CCCC2)nc2c1c(=O)n(Cc1ccc(Cl)c(Cl)c1)c(=O)n2C [Example 124, 1-(3,4-dichlorobenzyl)-8-(1-(hydroxymethyl)cyclopentylamino)-3,7-dimethyl-1H-purine-2,6(3H,7H)-dione]
